Data reported in patent US6475751B2, “Scintillation proximity assay for type II fatty acid biosynthetic enzymes” (Virginia Commonwealth University, priority 2000, dated 2002).
Read-outs that look alike come from different tables or passages of the source.

Assays:
[1] = biological target: T1, S. glaucescens His6-KASIII (Streptomyces glaucescens, UniProt Q54206); test: KASIII scintillation proximity assay (SPA); format: biochemical
T1 construct: His6 (N); made in house; host or cells: Escherichia coli BL21 (DE3 pLysE)/pLH14
T1 sequence (Q54206 1-333): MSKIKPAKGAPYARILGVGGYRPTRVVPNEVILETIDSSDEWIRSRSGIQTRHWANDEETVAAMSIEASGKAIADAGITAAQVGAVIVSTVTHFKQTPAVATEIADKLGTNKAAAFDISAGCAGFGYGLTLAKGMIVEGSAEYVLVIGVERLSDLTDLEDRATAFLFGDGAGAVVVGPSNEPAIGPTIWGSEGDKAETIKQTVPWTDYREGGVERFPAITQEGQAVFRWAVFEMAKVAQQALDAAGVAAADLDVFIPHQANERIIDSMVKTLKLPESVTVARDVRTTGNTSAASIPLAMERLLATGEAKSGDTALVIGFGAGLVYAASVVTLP
Experimental: (§1) The standard reaction mixture contained the following components in a final volume of […]: S. glaucescens His6-KASIII […], 100 mM imidazole, pH 7.0, 2.6 μM BMACP (MACP), [^3H] acetyl-CoA 0.6 μM (0.24 μCi, specific activity 20 Ci/mmol). The reaction was initiated by adding [^3H] acetyl-CoA and incubated at 30 ° C. for 10 minutes.
(§2) For the KASIII SPA, the reaction was terminated by the sequential addition of 100 μl of 100% ethanol (which denatures the KASIII) and 50 μl of the SPA bead solution (10 mg/ml). The mixture was then incubated for 2 hr at 23° C. with gentle shaking. After allowing the beads to settle the sealed OptiPlate (Packard, Meriden, Conn.) was counted using a TopCount (Packard) set up in SPA mode. A background signal was obtained by carrying out the assay in absence of KASIII. This background signal was subtracted from KASIII SPA signals.
(§3) In all inhibitor studies, the inhibitor was first dissolved in DMSO and preincubated with enzyme for 15 minutes at 23° C., prior to addition of substrate. The final DMSO concentration in each of these assays remained below 1%.
The apparent Km for MACP with the S. glaucescens KASIII was determined using the standard TCA precipitation assay with the following modifications: tritiated acetyl-CoA at a final concentration of 13.3 μM (0.4 μCi, specific activity 1 Ci/mmol ) was incubated at 30° C. for 5 min with various concentrations of MACP (0.39-18.7 μM) in a volume of 30 μl. The apparent Km for BMACP with the S. glaucescens KASIII was determined in SPA format. Tritiated acetyl-CoA at a final concentration of 7.5 μM (0.6 μCi, specific activity 4 Ci/mmol) was incubated at 30° C. for 9 min with various BMACP concentrations (0.28 to 9 μM).

[2] = biological target: T1, S. glaucescens His6-KASIII; conditions: cited from earlier work
[3] = biological target: T1, S. glaucescens His6-KASIII; test: KASIII TCA precipitation assay; format: biochemical
Experimental: as §1
(§4) In the KASIII TCA precipitation assay, the reaction was quenched by the addition of 200 μl ice cold 10% TCA, incubated on ice for 10 min and centrifuged at 13,000 g for 10 min. The supernatant was discarded and the pellet was resuspended with another 200 μl of cold TCA and centrifuged. The pellet bound ^3H labeled product was dissolved in 2% SDS, 20 mM NaOH and quantitated by liquid scintillation counting. The Escherichia coli KASIII assay was performed in the same manner except that the incubation time was reduced to 2 minutes, and 0.13 μg of protein and 0.4 μM MACP (BMACP) were used in the assay.
In all inhibitor studies, the inhibitor was first dissolved in DMSO and preincubated with enzyme for 15 minutes at 23° C., prior to addition of substrate. The final DMSO concentration in each of these assays remained below 1%. […]

[4] = biological target: T2, E. coli KASIII (Escherichia coli, UniProt P0A6R0); test: KASIII scintillation proximity assay (SPA); format: biochemical
T2 sequence (P0A6R0 whole entry): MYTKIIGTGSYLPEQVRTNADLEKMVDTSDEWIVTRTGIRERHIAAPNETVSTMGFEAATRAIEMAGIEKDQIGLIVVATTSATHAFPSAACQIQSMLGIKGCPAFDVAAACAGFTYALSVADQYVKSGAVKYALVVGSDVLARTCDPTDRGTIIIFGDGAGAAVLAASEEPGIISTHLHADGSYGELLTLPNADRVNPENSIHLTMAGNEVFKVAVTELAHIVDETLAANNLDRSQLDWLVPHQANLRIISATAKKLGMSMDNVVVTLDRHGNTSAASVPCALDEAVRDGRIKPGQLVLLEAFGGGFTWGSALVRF
Experimental: as §1, §2
as §4, with “The Escherichia coli KASIII assay was performed in the same manner except that the incubation time was reduced to 2 minutes, and 0.13 μg of protein and 0.4 μM MACP (BMACP) were used in the assay.” left out

[5] = biological target: T2, E. coli KASIII; test: KASIII TCA precipitation assay; format: biochemical
Experimental: as §1, §4, §3

## C[S+](C)[O-] [DMSO, Dimethyl Sulfoxide]
[1]; DMSO concentration of 10% v/v
  reduction in the SPA signal: ~50%
[1]; DMSO concentrations below 1.5% v/v
  decrease in the SPA signal: no significant decrease

## CC(=O)SCCNC(=O)CCNC(=O)[C@H](O)C(C)(C)COP(=O)(O)OP(=O)(O)OC[C@H]1O[C@@H](n2cnc3c(N)ncnc32)[C@H](O)[C@@H]1OP(=O)(O)O [acetyl-CoA]
[1]; SPA, suggested by linear relationship over 0-1.6 μM substrate, read-out: Km for acetyl-CoA
  Km: > 1.6 µM
[2]; previous analyses using a TCA-precipitation assay, read-out: Km for acetyl-CoA
  Km: 3 µM

## NC(=O)CI [iodoacetamide, Iodoacetamide, reference compound]
[1]
  IC50: 15 ± 1 µM
[3]; TCA precipitation assay, inhibitor preincubated with enzyme 15 minutes at 23° C.
  IC50: 25 ± 3 µM

## C=C/C(C)=C/[C@@]1(C)SC(=O)C(C)=C1O [thiolactomycin]
[4]
  IC50: 124 ± 14 µM
[5]
  IC50: 160 ± 14 µM

## BMACP: Biotinylated Malonyl-Acyl Carrier Protein, prepared by biotinylation of MACP using NHS-biotin; KASIII substrate
[1]; SPA format, 7.5 μM tritiated acetyl-CoA, 30° C., 9 min, read-out: Km (apparent) for substrate
  Km: 7.2 ± 2.6 µM
[2]; previously determined using a TCA precipitation assay, read-out: Km previously determined
  Km: 3.7 µM

## MACP: Malonyl-Acyl Carrier Protein generated from Escherichia coli ACP and malonyl-CoA; KASIII substrate
[3]; TCA-based assay, 13.3 μM tritiated acetyl-CoA, 30° C., 5 min, read-out: Km (apparent) for substrate
  Km: 6.1 ± 0.4 µM
